Assay results: US20090041778A1, “Methods And Compositions For The Treatment Of Graft Failure” (priority 2004, published 2009)
In brackets after ≈: the same amount, converted by molar mass. Entries after “also recorded” stand apart in the source; their conditions may differ. Counter-ions that a name gives are not always drawn. Each block holds one compound with its values, some of them ahead of it.

Columns and labels:
[1] = Solubility in aqueous buffer / hydrophilicity; assay type: physicochemical
[2] = tested on: human aortic vascular smooth muscle cell (HASOM cells); assay: PDGF-induced migration of HASOM cells in a 24-well Boyden chamber; assay type: cell-based
Procedure: (§1) The cells were then cultured in the presence of these agents for forty-eight hours prior to the migration assay. […] Each well contained an insert with a polycarbonate filter having 8 μm pores. In preparation for the migration assays, the membranes were coated with 0.1% gelatin for 8 hours, aspirated, and allowed to dry for 2 hours.
(§2) The M-199 media containing 0.5% BSA and 20 ng/ml human PDGF-B (hPDGF-BB) was placed in the bottom Boyden chamber. Cells were incubated at 5% CO2 at 37° C. for twelve hours and the cells lying on the upper surface of the membrane were scraped off. The insert membranes were removed and the cells on the lower surface of each membrane were stained with hematoxylin. Cell migration was then quantified by counting the cells in five random high-power fields on the lower surface of the membrane. All assays were run in triplicate.

[3] = cited from earlier work
[4] = tested on: cells of porcine origin from a primary explant of porcine carotid artery; assay: PDGF-induced migration of cells of porcine origin (Boyden chamber); assay type: cell-based; conditions: hPDGF-BB 20 ng/ml; second passage cells; dose dependent
Procedure: as §1, §2

neointimal hyperplasia = conditions: rabbit carotid artery balloon angioplasty and vein graft intimal hyperplasia models; cited from earlier work
[5] = tested on: neointimal hyperplasia in mouse vein grafts; conditions: administered locally; cited from earlier work
[6] = tested on: intimal thickening after balloon angioplasty; conditions: rabbit model; administered systemically; cited from earlier work

hydrophilicity [1]: very hydrophilic | IC50 ([2]; Homo sapiens, in vitro VSMC migration, read-out: IC50 for blocking VSMC migration): 1 to 5 ng/mL (≈ 1.09 to 5.47 nM)
Compound: CO[C@H]1C[C@@H]2CC[C@@H](C)[C@@](O)(O2)C(=O)C(=O)N2CCCC[C@H]2C(=O)O[C@H]([C@H](C)C[C@@H]2CC[C@@H](O)[C@H](OC)C2)CC(=O)[C@H](C)/C=C(\C)[C@@H](O)[C@@H](OC)C(=O)[C@H](C)C[C@H](C)/C=C/C=C/C=C/1C [rapamycin]
absorption after oral administration [3]: absorbed rapidly and completely

Compound: Cc1ccc(NC(=O)c2ccc(CN3CCN(C)CC3)cc2)cc1Nc1nccc(-c2cccnc2)n1 [Gleevec, imatinib mesylate]
inhibition of PDGF induced migration of HASOM cells ([2]; hPDGF-BB 20 ng/ml, 48 h drug pre-treatment, 12 h migration, dose dependent): potently inhibited; also recorded: inhibited migration | inhibition of PDGF-B induced migration of porcine cells [4]: inhibited

Compound: O=C(c1ccc(F)cc1)C1CCN(CCn2c(=O)[nH]c3ccccc3c2=O)CC1 [Ketanserin]
prevention of neointimal hyperplasia (neointimal hyperplasia): effective

Compound: Cc1ccc(C(=O)Nc2ccc(S(=O)(=O)O)c3cc(S(=O)(=O)O)cc(S(=O)(=O)O)c23)cc1NC(=O)c1cccc(NC(=O)Nc2cccc(C(=O)Nc3cc(C(=O)Nc4ccc(S(=O)(=O)O)c5cc(S(=O)(=O)O)cc(S(=O)(=O)O)c45)ccc3C)c2)c1 [Suramin]
inhibition of neointimal hyperplasia in mouse vein grafts [5]: effective | inhibition of intimal thickening after balloon angioplasty [6]: inhibit intimal thickening

Compound: COc1cccc(CCc2ccccc2OCC(CN(C)C)OC(=O)CCC(=O)O)c1.Cl (stereo not drawn) [Anplag]
prevention of neointimal hyperplasia (neointimal hyperplasia): effective
